# Patent US4740601A, “Imidazole derivatives having antimicrobial activities” (SS Pharmaceutical Co., Ltd., priority 1985, dated 1988)
# How the values were obtained:
# Format in all cases: cell-based
# [1] = test system: Staphylococcus aureus Smith; experiment: antimicrobial activity, MIC; settings: Staphylococcus aureus, read-out: MIC
# [2] = test system: Trichophyton mentagrophytes IFO 5812; experiment: antimicrobial activity, MIC; settings: Trichophyton mentagrophytes, IFO5812, Trichophyton mentagrophytes IFO 5812; read-out: MIC
# [3] = test system: Candida albicans NHL 4019; experiment: antimicrobial activity, MIC; settings: Candida albicans, NHL4019, Candida albicans NHL 4019; read-out: MIC
# [4] = test system: Staphylococcus aureus FDA 209P; experiment: antimicrobial activity, MIC; settings: Staphylococcus aureus, FDA209P, read-out: MIC
# [5] = test system: Aspergillus niger ATCC 9642; experiment: antimicrobial activity, MIC; settings: Aspergillus niger, ATCC9642, Aspergillus niger ATCC 9642; read-out: MIC
# [6] = test system: Pyricularia oryzae IAM 5016; experiment: microbe, parasite or virus in culture; settings: Pyricularia oryzae, IAM5016, Pyricularia oryzae IAM 5016
# [7] = test system: Streptococcus faecalis IFO 12964; experiment: antimicrobial activity, MIC; settings: Enterococcus faecalis, IFO12964, Streptococcus faecalis IFO 12964; read-out: MIC
# [8] = test system: Staphylococcus epidermidis ATCC 12228; experiment: antimicrobial activity, MIC; settings: Staphylococcus epidermidis, ATCC12228, Staphylococcus epidermidis ATCC 12228; read-out: MIC
# [9] = test system: Microsporum audounii IFO 6074; experiment: antimicrobial activity, MIC; settings: Microsporum, IFO6074, Microsporum audounii IFO 6074; read-out: MIC
# [10] = test system: Trichophyton rubrum NHL J; experiment: antimicrobial activity, MIC; settings: Trichophyton rubrum, Trichophyton rubrum NHL J; read-out: MIC
# [11] = test system: Candida albicans Yu-1200; experiment: antimicrobial activity, MIC; settings: YU1200, read-out: MIC
# [12] = test system: Aspergillus oryzae IMF 4014; experiment: antimicrobial activity, MIC; settings: Aspergillus oryzae, IMF4014, Aspergillus oryzae IMF 4014; read-out: MIC
# [13] = test system: Saccharomyces cerevisiae ATCC 9763; experiment: antimicrobial activity, MIC; settings: Saccharomyces cerevisiae, ATCC9763, Saccharomyces cerevisiae ATCC 9763; read-out: MIC
# [14] = test system: Epidermophyton floccosum IFO 9045; experiment: antimicrobial activity, MIC; settings: Epidermophyton floccosum, IFO9045, Epidermophyton floccosum IFO 9045; read-out: MIC
# [15] = test system: Saccharomyces ruxii 6507; experiment: antimicrobial activity, MIC; settings: Saccharomyces ruxii 6507; read-out: MIC
# [16] = test system: Staphylococcus aureus Terajima; experiment: antimicrobial activity, MIC; settings: Staphylococcus aureus, read-out: MIC
# [17] = test system: Trichophyton tonsurans IFO 5928; experiment: antimicrobial activity, MIC; settings: Trichophyton tonsurans, IFO5928, Trichophyton tonsurans IFO 5928; read-out: MIC
# [18] = test system: Fusarium moniliforme IAM 5062; experiment: antimicrobial activity, MIC; settings: Fusarium verticillioides, IAM5062, Fusarium moniliforme IAM 5062; read-out: MIC
# [19] = test system: Microsporum gypseum IFO 8231; experiment: antimicrobial activity, MIC; settings: Nannizzia gypsea, IFO8231, Microsporum gypseum IFO 8231; read-out: MIC
# [20] = test system: Cladosporium fulvum IAM 5006; experiment: antimicrobial activity, MIC; settings: Fulvia fulva, IAM5006, Cladosporium fulvum IAM 5006; read-out: MIC
# [21] = test system: Penicillium chrysogenum ATCC 6010; experiment: antimicrobial activity, MIC; settings: Penicillium chrysogenum, ATCC6010, Penicillium chrysogenum ATCC 6010; read-out: MIC
# [22] = test system: Bacillus subtilis ATCC 6633; experiment: antimicrobial activity, MIC; settings: Bacillus subtilis, ATCC6633, Bacillus subtilis ATCC 6633; read-out: MIC
# [23] = test system: Sarcina lutea ATCC 9341; experiment: antimicrobial activity, MIC; settings: Micrococcus luteus, ATCC9341, Sarcina lutea ATCC 9341; read-out: MIC
# [24] = test system: Micrococcus lysodeixticus IFO 3333; experiment: antimicrobial activity, MIC; settings: Micrococcus, IFO3333, Micrococcus lysodeixticus IFO 3333; read-out: MIC
# [25] = test system: Microsporum cookei IFO 8303; experiment: antimicrobial activity, MIC; settings: Paraphyton cookei, IFO8303, Microsporum cookei IFO 8303; read-out: MIC
# [26] = test system: Helminthosporium sesamum IAM 5012; experiment: antimicrobial activity, MIC; settings: Helminthosporium, IAM5012, Helminthosporium sesamum IAM 5012; read-out: MIC
# [27] = test system: Gibberella fujikuroi IAM 8046; experiment: antimicrobial activity, MIC; settings: Fusarium fujikuroi, IAM8046, Gibberella fujikuroi IAM 8046; read-out: MIC
# [28] = test system: Trichophyton mentagrophytes QM 248; experiment: antimicrobial activity, MIC; settings: Trichophyton mentagrophytes, QM248, Trichophyton mentagrophytes QM 248; read-out: MIC
# [29] = test system: Debaryomyces kloeckeri IFO 0015; experiment: antimicrobial activity, MIC; settings: IFO0015, read-out: MIC
SMILES,MIC [1] [mg/L],MIC [2] [mg/L],MIC [3] [mg/L],MIC [4] [mg/L],MIC [5] [mg/L],MIC [6] [mg/L],MIC [7] [mg/L],MIC [8] [mg/L],MIC [9] [mg/L],MIC [10] [mg/L],MIC [11] [mg/L],MIC [12] [mg/L],MIC [13] [mg/L],MIC [14] [mg/L],MIC [15] [mg/L],MIC [16] [mg/L],MIC [17] [mg/L],MIC [18] [mg/L],MIC [19] [mg/L],MIC [20] [mg/L],other results
"CCCCCOc1ccccc1C(=CSCC)n1ccnc1 (single isomer, unassigned) [Compound 34]",12.5,< 0.2,50,12.5,0.78,< 0.2,12.5,3.12,< 0.2,< 0.2,50,1.56,< 0.2,1.56,< 0.2,12.5,< 0.2,0.39,< 0.2,25,MIC [21]: 3.12 mg/L; MIC [22]: 3.12 mg/L; MIC [23]: 1.56 mg/L; MIC [24]: 0.39 mg/L; MIC [25]: 1.56 mg/L; MIC [26]: < 0.2 mg/L; MIC [27]: < 0.2 mg/L; MIC [28]: < 0.2 mg/L; MIC [29]: 0.78 mg/L
"CCCOc1ccccc1C(=CSCCC)n1ccnc1 (single isomer, unassigned) [Compound 39]",25,0.39,25,25,1.56,< 0.2,25,25,< 0.2,< 0.2,50,0.78,0.39,1.56,0.78,25,0.39,0.78,0.39,25,MIC [21]: 1.56 mg/L; MIC [22]: 12.5 mg/L; MIC [23]: 12.5 mg/L; MIC [24]: 6.25 mg/L; MIC [25]: 1.56 mg/L; MIC [26]: 0.39 mg/L; MIC [27]: 0.78 mg/L; MIC [28]: 0.39 mg/L; MIC [29]: 6.25 mg/L
